Results taken from ChEMBL document CHEMBL3739390, “Plantadeprate A, a Tricyclic Monoterpene Zwitterionic Guanidium, and Related Derivatives from the Seeds of Plantago depressa” (2015).

Assays:
[1] = tested on: Hepatocyte; test: Antihyperglycemic activity in Sprague-Dawley rat hepatocytes assessed as inhibition of glucose production at 2 mM after 6 hrs by glucose oxidase activity assay; type: functional
[2] = tested on: Saccharomyces cerevisiae; test: Inhibition of Saccharomyces cerevisiae alpha-glucosidase using 4-nitrophenyl alpha-glucopyranoside as substrate at 6.25 mM preincubated for 10 mins followed by substrate addition measured after 20 mins by spectrophotometric analysis
[3] = target: T1, Angiotensin-converting enzyme (Oryctolagus cuniculus) (UniProt P12822); test: Inhibition of rabbit lung ACE using hippuryl-histidyl-leucine as substrate assessed as hippuric acid formation at 10 mM by UPLC-MS analysis
T1 sequence (whole entry): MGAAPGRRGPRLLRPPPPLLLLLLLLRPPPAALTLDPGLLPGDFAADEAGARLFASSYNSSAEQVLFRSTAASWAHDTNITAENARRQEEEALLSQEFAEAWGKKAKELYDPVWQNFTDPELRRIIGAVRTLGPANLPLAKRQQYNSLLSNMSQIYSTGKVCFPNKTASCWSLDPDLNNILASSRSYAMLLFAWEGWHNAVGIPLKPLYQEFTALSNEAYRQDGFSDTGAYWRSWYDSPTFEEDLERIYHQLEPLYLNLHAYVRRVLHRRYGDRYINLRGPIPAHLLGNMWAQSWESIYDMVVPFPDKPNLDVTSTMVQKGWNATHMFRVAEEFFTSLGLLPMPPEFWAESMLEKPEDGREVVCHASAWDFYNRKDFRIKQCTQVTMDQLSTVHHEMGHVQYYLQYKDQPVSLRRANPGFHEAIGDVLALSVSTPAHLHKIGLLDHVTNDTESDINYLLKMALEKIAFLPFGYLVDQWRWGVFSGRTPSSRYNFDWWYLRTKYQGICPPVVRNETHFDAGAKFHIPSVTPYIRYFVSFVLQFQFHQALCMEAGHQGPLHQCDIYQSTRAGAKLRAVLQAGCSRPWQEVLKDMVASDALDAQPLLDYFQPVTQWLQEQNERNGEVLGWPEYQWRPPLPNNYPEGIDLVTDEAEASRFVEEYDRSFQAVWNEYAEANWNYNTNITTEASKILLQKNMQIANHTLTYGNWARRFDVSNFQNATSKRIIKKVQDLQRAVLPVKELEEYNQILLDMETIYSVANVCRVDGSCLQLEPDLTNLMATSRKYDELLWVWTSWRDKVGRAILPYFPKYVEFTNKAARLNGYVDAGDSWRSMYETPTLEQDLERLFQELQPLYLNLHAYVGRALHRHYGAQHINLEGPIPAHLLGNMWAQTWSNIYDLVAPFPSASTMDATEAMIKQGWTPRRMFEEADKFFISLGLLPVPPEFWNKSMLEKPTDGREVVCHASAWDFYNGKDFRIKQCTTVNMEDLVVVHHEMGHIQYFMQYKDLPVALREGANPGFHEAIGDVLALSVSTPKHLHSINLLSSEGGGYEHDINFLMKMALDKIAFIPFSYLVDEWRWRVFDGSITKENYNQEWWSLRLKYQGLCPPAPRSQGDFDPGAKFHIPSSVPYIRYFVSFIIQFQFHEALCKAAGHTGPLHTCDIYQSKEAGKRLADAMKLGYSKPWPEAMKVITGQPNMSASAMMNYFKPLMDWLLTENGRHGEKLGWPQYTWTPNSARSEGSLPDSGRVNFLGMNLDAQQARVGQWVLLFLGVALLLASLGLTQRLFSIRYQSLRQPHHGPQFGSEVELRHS

[4] = tested on: Hepatocyte; test: Antihyperglycemic activity in Sprague-Dawley rat hepatocytes assessed as inhibition of glucose production at 40 uM after 6 hrs by glucose oxidase activity assay; type: functional

SMILES | inhibition at 2000 µM [1] [%] | inhibition [2] [%] | inhibition [3] [%] | inhibition at 40 µM [4] [%]
CN(C)C(=N)NC(=N)N [METFORMIN] | 25 |  |  | 
CC1(C)C[C@]2(O)C[C@@H](C(=O)[O-])[C@@H]3CNC(=[N+]32)N1 |  | 20 | 26 | 8.2
CC(C)=CCC[C@@H](C(=O)O)[C@@H]1CNC(=N)N1 |  |  |  | 12.5
CC(C)=CCC[C@@H](C(=O)O)[C@@H]1CN(CC(O)CCO)C(=N)N1 (stereo partly specified) |  |  |  | 18.5
